In patent US6593454B2, “Methods for identifying inhibitors of methionine aminopeptidases” (Saint Louis University, priority 1999, dated 2003):

Experiments:
type 1 MAP = type 1 MAP (Saccharomyces cerevisiae, UniProt Q01662); assay: Coupled MAP/dipeptidyl peptidase IV assay, release of p-nitroanilide at 405 nm, type 1 MAP inhibition; assay type: biochemical, yeast
Experimental: (§1) MAP activity was next determined by monitoring the release of p-nitroanilide in a microtiter format. Purified type 1 MAP or type 2 MAP (0.6 μg) and/or 0.001 unit of dipeptidyl peptidase IV was added in 47 μl of buffer H (10 mM Hepes, pH 7.4, 10% glycerol), containing 0.1 M KCl and 0.1 mM of Co^2+ in wells of a 96-well microtiter plate. After incubating at 37° C. for 5 min, 2 mM of Met-Gly-Pro-p-nitroanilide was added to the mixture to start the reaction. A microtiter plate reader, set at 405 nm to detect released p-nitroanilide, was used to record the progress of the reactions. […] These curves are highly reproducible and linear, with correlation coefficients (r^2)>0.98.
(§2) After incubating the inhibitor with MAP solutions at 37° C. for 10 min, 2 mM of Met-Gly-Pro-p-nitroanilide was added to start the reaction, and the release of p-nitroanilide was monitored with a microtiter plate reader at 405 nm as described above. The effect of fumigillin on dipeptidyl peptidase IV activity was also tested by using Gly-Pro-p-nitroanilide as the substrate.

type 2 MAP = type 2 MAP (Homo sapiens, UniProt P50579); assay: Coupled MAP/dipeptidyl peptidase IV assay, release of p-nitroanilide at 405 nm, type 2 MAP inhibition; assay type: biochemical
Experimental: as §1, §2

dipeptidyl peptidase IV = dipeptidyl peptidase IV (Homo sapiens, UniProt P27487); assay: Dipeptidyl peptidase IV control assay with Gly-Pro-p-nitroanilide as substrate; assay type: biochemical
Experimental: as §1, §2

[1] = FIG. 3 legend, dipeptidyl peptidase IV and Met-Gly-Pro-p-nitroanilide, no concentration stated

Chain of type 2 MAP (P50579 whole entry): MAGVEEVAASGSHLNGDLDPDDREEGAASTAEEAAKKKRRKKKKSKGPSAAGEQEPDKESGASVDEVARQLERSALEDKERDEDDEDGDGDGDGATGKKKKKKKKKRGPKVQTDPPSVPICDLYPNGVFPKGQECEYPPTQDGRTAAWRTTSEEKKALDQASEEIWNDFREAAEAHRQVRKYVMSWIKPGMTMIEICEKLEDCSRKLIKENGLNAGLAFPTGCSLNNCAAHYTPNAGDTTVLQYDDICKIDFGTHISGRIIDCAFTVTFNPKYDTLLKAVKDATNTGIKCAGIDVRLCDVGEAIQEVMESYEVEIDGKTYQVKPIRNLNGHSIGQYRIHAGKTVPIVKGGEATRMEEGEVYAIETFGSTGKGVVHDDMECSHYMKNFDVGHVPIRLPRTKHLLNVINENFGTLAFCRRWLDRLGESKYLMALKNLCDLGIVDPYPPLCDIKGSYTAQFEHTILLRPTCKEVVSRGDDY
Chain of type 1 MAP (Q01662 whole entry): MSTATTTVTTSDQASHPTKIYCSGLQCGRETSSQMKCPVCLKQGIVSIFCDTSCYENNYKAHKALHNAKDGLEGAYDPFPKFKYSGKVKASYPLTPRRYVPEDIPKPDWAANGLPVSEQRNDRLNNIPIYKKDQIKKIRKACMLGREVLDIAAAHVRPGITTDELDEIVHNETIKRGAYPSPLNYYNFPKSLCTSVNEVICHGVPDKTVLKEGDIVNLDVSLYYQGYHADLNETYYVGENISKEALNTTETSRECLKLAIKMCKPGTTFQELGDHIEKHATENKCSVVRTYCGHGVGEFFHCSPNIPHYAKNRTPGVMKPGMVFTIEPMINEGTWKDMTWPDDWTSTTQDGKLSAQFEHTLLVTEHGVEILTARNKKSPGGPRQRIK
Chain of dipeptidyl peptidase IV (P27487 whole entry, species assumed): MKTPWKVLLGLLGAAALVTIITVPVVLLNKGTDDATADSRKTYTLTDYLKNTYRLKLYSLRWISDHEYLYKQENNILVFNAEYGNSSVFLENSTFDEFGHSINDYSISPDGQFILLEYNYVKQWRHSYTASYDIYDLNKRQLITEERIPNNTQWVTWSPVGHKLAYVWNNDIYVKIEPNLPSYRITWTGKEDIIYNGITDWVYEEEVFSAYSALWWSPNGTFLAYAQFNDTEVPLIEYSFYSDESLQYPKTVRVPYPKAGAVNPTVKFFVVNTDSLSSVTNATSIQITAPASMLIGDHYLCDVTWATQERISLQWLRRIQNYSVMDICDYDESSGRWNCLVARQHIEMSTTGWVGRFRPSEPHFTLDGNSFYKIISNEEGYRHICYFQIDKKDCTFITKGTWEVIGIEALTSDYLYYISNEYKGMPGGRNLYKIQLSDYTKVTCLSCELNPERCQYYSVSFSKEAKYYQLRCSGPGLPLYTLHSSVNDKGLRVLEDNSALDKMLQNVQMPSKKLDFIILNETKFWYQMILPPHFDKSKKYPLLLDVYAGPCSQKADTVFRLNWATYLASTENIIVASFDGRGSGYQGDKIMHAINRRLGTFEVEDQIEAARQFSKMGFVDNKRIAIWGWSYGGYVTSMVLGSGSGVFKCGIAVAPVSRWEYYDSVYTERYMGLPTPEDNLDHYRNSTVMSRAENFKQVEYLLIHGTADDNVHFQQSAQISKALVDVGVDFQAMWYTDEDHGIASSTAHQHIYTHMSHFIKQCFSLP

CO[C@@H]1[C@H](OC(=O)/C=C/C=C/C=C/C=C/C(=O)O)CC[C@]2(CO2)[C@H]1[C@@]1(C)O[C@@H]1CC=C(C)C [fumagillin]
type 1 MAP activity (type 1 MAP; 50 nM inhibitor, 10 min preincubation at 37° C., 2 mM Met-Gly-Pro-p-nitroanilide, FIG. 3): remained unaffected
release of p-nitroanilide when type 1 MAP was used (type 1 MAP; [1]): not
type 2 MAP activity (type 2 MAP; 20 nM inhibitor, 10 min preincubation at 37° C., 2 mM Met-Gly-Pro-p-nitroanilide, FIG. 3): completely inhibited
release of p-nitroanilide when type 2 MAP was used (type 2 MAP; [1]): strongly inhibited
dipeptidyl peptidase IV activity (dipeptidyl peptidase IV; 50 nM inhibitor, Gly-Pro-p-nitroanilide as substrate, FIG. 3): remained unaffected
release of p-nitroanilide when dipeptidyl peptidase IV was used with Gly-Pro-p-nitroanilide (dipeptidyl peptidase IV; FIG. 3 legend, no concentration stated): not
